US10835513B2, “Methods and treatments for the learning and memory deficits associated with Noonan syndrome” (The Regents of the University of California, priority 2013, dated 2020)

Legend:
[1] = tested on: Erk; assay: p-Erk immunoblot of Ptpn11^D61G/+ hippocampi after lovastatin injection; type: in vivo, mice
Experimental: (§1) FIG. 6 are graphs showing that Lovastatin treatment reverses spatial learning and memory and LTP deficits in Ptpn11^D61G/+ mice. […] Left, Representative immunoblot showing p-Erk (upper) and total Erk (lower) levels in Ptpn11^D61G/+ mice and WT. Hippocampi were dissected 6 hr after the 4th day of lovastatin injection (subcutaneous (s.c.) injections, 10 mg/kg). Right, Bar graph displaying normalized p-Erk levels (mean±s.e.m.). n=7-8 per group. t-test, *P<0.05. […] Two-way ANOVA followed by Bonferroni post-test, WT/Veh vs. Ptpn11^D61G/+/Veh, *P<0.05, **P<0.01; Ptpn11^D61G/+/Veh vs. Ptpn11^D61G/+/Lova, +P<0.05. […] Two-way ANOVA with genotype as between-subjects factor and drug treatment as within-subjects factor, effect of genotype: F(1, 45)=19.79, ***P<0.0001, interaction: F (1,45)=0.4489, P=0.506.
As in AAV-PTPN11^D61G-infected mice, p-Erk levels were increased in Ptpn11^D61G/+ hippocampi (FIG. 6, panel a). […] Importantly, the spatial learning performance of lovastatin-treated Ptpn11^D61G/+ mice was indistinguishable from controls (FIG. 6, panels d, e).
Dissected hippocampi were homogenized in protein lysis buffer (10 mM Tris-Cl pH 6.8, 1.6% SDS) containing protease and phosphatase inhibitor cocktails (Sigma). Supernatants were collected after centrifugation and the protein concentration was determined using a BCA assay kit (Thermo). […]

[2] = tested on: Nf1^+/− mutant mice; conditions: previous study (ref. 21); cited from earlier work
[3] = tested on: hippocampal slices of Ptpn11^D61G/+ mice; assay: 5 TBS-induced LTP in hippocampal slices after systemic administrations of lovastatin; type: in vivo
Experimental: FIG. 6 are graphs showing that Lovastatin treatment reverses spatial learning and memory and LTP deficits in Ptpn11^D61G/+ mice. […] Left, Representative immunoblot showing p-Erk (upper) and total Erk (lower) levels in Ptpn11^D61G/+ mice and WT. Hippocampi were dissected 6 hr after the 4th day of lovastatin injection (subcutaneous (s.c.) injections, 10 mg/kg). Right, Bar graph displaying normalized p-Erk levels (mean±s.e.m.). n=7-8 per group. t-test, *P<0.05. […] Two-way ANOVA followed by Bonferroni post-test, WT/Veh vs. Ptpn11^D61G/+/Veh, *P<0.05, **P<0.01; Ptpn11^D61G/+/Veh vs. Ptpn11^D61G/+/Lova, +P<0.05. […]
For extracellular recordings of field excitatory postsynaptic potentials (fEPSP), sagittal slices (400 μm) were prepared with a vibratome (VT1000S, Leica) in ice-cold artificial cerebrospinal fluid (ACSF). […] Recording was performed in a submerged chamber perfused with ACSF (32° C.). fEPSPs were recorded with platinum-iridium electrodes placed in the CA1 stratum radiatum. […] Baseline responses were measured with stimulation (0.017 Hz, 0.1 ms pulse duration) at an intensity (typically 20-30 μA) that evoked a response that was approximately one third of the maximum evoked response. […] Initial fEPSP slopes were measured and normalized to the average of baseline (Clampfit 10.2).

[4] = tested on: Ptpn11^D61G/+ mice; assay: Morris water maze (hidden platform) in Ptpn11^D61G/+ mice treated with lovastatin; type: in vivo
Experimental: as §1
SL327 (Tocris) was dissolved in DMSO (16 mg/ml) and was injected intraperitoneally once daily, 30 min before the water maze experiment at a dose of 32 mg/kg. The volume of a single injection was under 80 μl. Lovastatin (Mevinolin, Sigma) was prepared as previously described^21. Briefly, lovastatin was dissolved in ethanol (final concentration of 8%) and 1N NaOH was added to convert mevinolin to the sodium salt. The pH of the final solution (4 mg/ml) was adjusted to 7.5 with HCl. The Vehicle solution was prepared with the same procedure. Lovastatin was administered daily (subcutaneous injection, 10 mg/kg) for 3 days before the first training day of the water maze and 6 hr before training every day thereafter.
In the hidden platform-version of Morris water maze, mice were trained with two blocks of 2 trials (ITI=1 min) spaced about 45 min apart. In each training trial, mice were released from a different starting position and then were allowed to search for the escape platform for 60 s. The platform was submerged 1 cm under the surface of the water. Once a mouse found the platform, it was left there for 15 s. […] Mice were trained for 5-7 consecutive days. Memory was assessed in probe trials that were given after completion of training as described in the main text. During the probe trial, the platform was removed and the mice were allowed to search for it for 60 s. Data were acquired and analyzed using WaterMaze software (Actimetrics).

[5] = Ptpn11^D61G/+ mice, lovastatin 10 mg/kg s.c.

Which results are given for CC[C@H](C)C(=O)O[C@H]1C[C@@H](C)C=C2C=C[C@H](C)[C@H](CC[C@@H]3C[C@@H](O)CC(=O)O3)[C@H]21 [Lovastatin]?
normalized p-Erk levels in hippocampi ([1]; Ptpn11^D61G/+ hippocampi, 6 hr after the 4th day of lovastatin s.c. 10 mg/kg): reverses increased Erk activation; Erk activation in hippocampi ([1]; WT controls, lovastatin s.c. 10 mg/kg): did not affect Erk activation in controls; spatial learning problems, attention deficits and pre-pulse inhibition deficits [2]: can rescue; Average % fEPSP changes (last 10 minutes of recordings), 5 TBS-induced LTP ([3]; Ptpn11^D61G/+ mice): 154.2±6.88%; Average % fEPSP changes (last 10 minutes of recordings), 5 TBS-induced LTP ([3]; WT mice): 150.7±5.49%; proximity to the target platform, probe trial [4, 5]: 39.82±2.53 cm; time in the target quadrant, probe trial [4, 5]: 45.70±4.43%; latency to the hidden platform during training sessions ([4]; Ptpn11^D61G/+ mice, lovastatin 10 mg/kg s.c. daily): comparable latency to WT mice; preference for the target quadrant, quadrant occupancy analysis ([4]; Ptpn11^D61G/+/Lova group, TQ vs. other quadrants): selectively searched for the target quadrant; any measure of learning in WT animals ([4]; WT animals, lovastatin at the concentration used (10 mg/kg)): had no effect on any measure of learning; proximity to the target platform, probe trial ([4]; WT mice, lovastatin 10 mg/kg s.c.): 35.28±3.26 cm
